Test results taken from EP2077851B1, “A PHARMACEUTICAL COMPOSITION COMPRISING CORDYCEPIN FOR THE TREATMENT AND PREVENTION OF OBESITY” (priority 2006, dated 2008).
Like-named read-outs stand apart in the source and are kept apart here.

What was measured:
[1] = cited from earlier work
3T3-L1 cells [2] = assay: Differentiation of 3T3-L1 fibroblast cells into adipocytes (oil red O staining); assay type: cell-based
Protocol: Fibroblast cells (3T3-L1 cells) were cultured in 10 cm-culture dishes containing animal cell culture media (refer to Table 2, below) at 37°C in a 5% CO2 incubator, with the media replaced with fresh media every two or three days.
3T3-L1 cell line was purchased from the American Type Culture Collection (ATCC CL-173). The cells were grown and differentiated according to the protocol of Frost and Lane (Frost and Lane, 1985): 3T3-L1 preadipocytes were cultured in 100 mm plates containing a submerged medium for proliferation (DMEM supplemented with 10% BCS, 100 U/ml penicillin, and 100 µg/ml streptomycin) in an atmosphere of 5% CO2 at 37°C. When the cell become confluent, the cells were harvested, splitted in a 6-well plate to a cell number of 4.0×10^5 cells/ml and subsequently cultured until reaching confluence again. Two days after confluence, the cells were stimulated to differentiate into adipocytes by incubating for 2 days in the medium for stimulating differentiation (MSD, DMEM containing 1 µM DEX, 0.5 mM IBMX, and 10 µg/ml insulin), and maintained in the differentiated state in the medium for differentiation (MFD containing 10% BCS and 5 µg/ml insulin) for 7 days. MSD was freshly replaced every 48 hours and the comparison of the each medium composition used in this example was shown in Table 2.
Cordycepin was dissolved in the appropriate warm medium and added at the final concentration of 4, 16, and 32 µM.
Cells obtained in Example 1-1 were washed twice with PBS (pH 7.4), fixed with 10% formalin in PBS for 1 hour at room temperature and washed three times with distilled water. The cells were stained with filtered 0.5% oil red O for 10 min, and washed again with distilled water three times. The pictures of the stained cells were taken using an Olympus (CKX-41, Tokyo, Japan) microscope. The density of stained oil red O was measured using a spectrometer (DU-70, Beckman, Fullerton, CA) at 518 nm after the dye was extracted with propanol. […]

3T3-L1 cells [3] = assay: Triacylglycerol synthesis in 3T3-L1 cells (intracellular triacylglycerol per unit weight of protein); assay type: cell-based
Protocol: A measurement was made to find the effect of cordycepin on the synthesis of triacylglycerol (TAG). First, the cells in each group were detached using a Tris-EDTA buffer and disrupted with an ultrasonicator. A calibration curve for a standard solution was made according to the protocol of a BCA protein assay kit. The cell lysates were diluted in the kit reagent and warmed at 37°C for 30 min. Then, within 10 min, the solutions were measured for absorbance at 562 nm to quantify protein. Separately, according to the protocol of a BCS triacylglycerol kit, the cell lysates were diluted in the kit reagent and warmed at 37°C for 10 min. Then, within 60 min, the absorbance of the solutions was measured at 550 nm against a reagent blank. The amount of intracellular triacylglycerol per unit weight of protein (µg/mg) was calculated according to a calculation formula.
For the preliminary investigation of the mode of action of cordycepin on differentiation and TAG synthesis, adenosine, one of several cordycepin homologues, was added to the submerged medium for differentiation at the time of initiating differentiation at the same molar concentration as cordycepin (32 µM).

anti-leptin = assay: Western blot analysis of protein expression in 3T3-L1 cells; assay type: cell-based; conditions: 32 µM, differentiated 3T3-L1 cells, FIG. 8
Protocol: (§1) Western blot analysis was performed in order to examine the effect of cordycepin on the expression of C/EBPα, PPARγ, and anti-leptin, the essential factors involved in adipogenesis and lipogenesis.
(§2) 3T3-L1 cells cultured in 6-well dishes were rinsed three times with ice-cold PBS, scraped into 0.5 ml of PBS, and centrifuged at 14,000 rpm for 1 min. Cell pellets were resuspended in 0.2 ml ice-cold RIPA buffer (50 mM Tris-HCl, pH 7.4, 150 mM NaCl, 1 mM EDTA, 1% NP 40, 0.25 % deoxycholate) and protease inhibitors (Complete Mini Protease Inhibitor Tablets, Roche, Indianapolis, IN). Suspensions were sheared through a 20-gauge needle, incubated on ice for 30 min and centrifuged at 14,000 rpm at 4°C for 20 min. Supernatants were collected and the protein concentration was determined using a BCA assay kit. Cell lysates were mixed with an equal volume of Laemmli SDS loading buffer (Bio-Rad Laboratories, Hercules, CA), equal amounts of lysate protein ([…]) were loaded onto SDS-PAGE, and electrophoresis was carried out before the protein was transferred to a nitrocellulose membrane (Bio-Rad Laboratories, Hercules, CA). The membranes were blocked for 1 h in PBS containing 0.05% Tween-20 (USB corp., Cleveland, USA) and 5% nonfat dry milk. The membranes were incubated with antibodies against C/EBPα, PPARγ (Santa Cruz, CA) and anti-leptin (Sigma) for 1 hour, followed by three 10 min washes in PBS/Tween-20. The blots were subsequently treated with appropriate secondary antibodies conjugated to horseradish peroxidase for 1 hour at room temperature, and washed with PBS-T three times for 10 min. To visualize reaction complexes, an enhanced chemiluminescence system (ECL, Amersham International plc, Little Chalfont Buckinghamshire, England) was used, and reaction complexes were exposed to X-ray film.

C/EBPα = assay: as above; assay type: cell-based; conditions: FIG. 8
Protocol: as §1, §2

PPARγ = assay: as above; assay type: cell-based; conditions: FIG. 8
Protocol: as §1, §2

[4] = anti-obesity drugs, background knowledge
[5] = adenosine 32 µM, differentiated 3T3-L1 cells

## NC1=NCC(c2ccccc2)O1 (centres unmarked) [Aminorex]
[1]; [4]
  Side effect: Pulmonary hypertension caused

## CC(N)Cc1ccccc1 (centres unmarked) [Amphetamine]
[1]; in vivo
  Side effect: Addictive

## CCNC(C)Cc1cccc(C(F)(F)F)c1 (centres unmarked) [Fenfluramine]
[1]; share of persons, sale prohibited in 1997
  Valvular dysfunction caused in persons administered in combination with other therapy: Valvular dysfunction caused in 35% of persons administered in combination with other therapy, sale prohibited in 1997.

## CCCCCCCCCCC[C@@H](C[C@@H]1OC(=O)[C@H]1CCCCCC)OC(=O)[C@H](CC(C)C)NC=O [Orlistat]
[1]; [4]
  Side effect: Diarrhea, fatty stool, fecal incontinence.

## CC(C)CC(N(C)C)C1(c2ccc(Cl)cc2)CCC1 (centres unmarked) [Sibutramine]
[1]; [4]
  Side effect: Blood pressure increase, insomnia, xerostomia and vertigo. Prohibited to the patients with cardiovascular disease.

## Nc1ncnc2c1ncn2[C@@H]1O[C@H](CO)[C@@H](O)[C@H]1O [adenosine]
3T3-L1 cells [2]; adenosine 32 µM added together with cordycepin 32 µM at initiation of differentiation, FIG. 6
  inhibitory effect of cordycepin on differentiation of 3T3-L1 cells: suppressed
3T3-L1 cells [3]; adenosine 32 µM added together with cordycepin 32 µM at initiation of differentiation, FIG. 7
  inhibitory effect of cordycepin on TAG synthesis of 3T3-L1 cells: suppressed
anti-leptin
  expression levels of anti-leptin: no significant effect
C/EBPα; [5]
  C/EBPα level: inhibited
PPARγ; [5]
  expression levels of PPARγ: no significant effect

## Nc1ncnc2c1ncn2[C@@H]1O[C@H](CO)C[C@H]1O [cordycepin, 3'-deoxyadenosine]
3T3-L1 cells [2]; cordycepin 4, 16 and 32 µM, oil red O, 518 nm, FIG. 4
  differentiation of 3T3-L1 cells into adipose cells: inhibits the differentiation of 3T3-L1 cells into adipose cells in a dose-dependent manner
3T3-L1 cells [2]; in the presence of 32 µM of cordycepin, FIG. 4
  differentiation of 3T3-L1 cells into adipocytes: almost completely suppressed
3T3-L1 cells [3]; cordycepin 4, 16 and 32 µM, FIG. 5
  synthesis of triacylglycerol in 3T3-L1 cells: inhibits the synthesis of triacylglycerol in 3T3-L1 cells in a dose-dependent manner
anti-leptin
  expression levels of anti-leptin: inhibited
C/EBPα; 32 µM, 3T3-L1 cells
  expression levels of C/EBPα: inhibited
PPARγ; 32 µM, 3T3-L1 cells
  expression levels of PPARγ: inhibited

## Thyroid hormone
[1]; [4]
  Side effect: Hyperthyroidism caused
